Measured values from article PMC10394516, “The pharmacokinetic profile of brensocatib and its effect on pharmacodynamic biomarkers including NE, PR3, and CatG in various rodent species” (Frontiers in Pharmacology, 2023).

Assays:
Assay type in all cases: in vivo
[1] = Plasma PK of brensocatib, BID vs QD oral dosing, Sprague Dawley rats; settings: both sexes, rat; for AUC(0-t): first 24 h
Protocol: (§1) A dose frequency study was performed in male and female mice (C57BL/6 & BALB/c) and in male and female rats (Sprague Dawley & Wistar) investigating twice daily (BID) versus once daily (QD) brensocatib administration.
(§2) Briefly, animals were weighed and randomized into different treatment groups. In total, three different dosing levels of brensocatib were tested in each species and strain; each QD dosing level was equivalent to 1.5-times the matching daily BID dose. For BID dosing, the second daily dose was administered 8-h post the morning dose. C57BL/6 mice were dosed either BID or QD for 7 consecutive days at 0/0, 0.5/0.75, 2/3, and 20/30 mg/kg/day (BID/QD). BALB/c mice were dosed for 7 consecutive days at 0/0, 0.2/0.3, 2/3, and 20/30 mg/kg/day (BID/QD). SD rats were dosed for 9 consecutive days at 0/0, 0.2/0.3, 2/3, and 20/30 mg/kg/day (BID/QD). Wistar rats were dosed for 7 consecutive days at 0/0, 0.2/0.3, 2/3, and 20/30 mg/kg/day (BID/QD).
(§3) For sparse PK analysis via LC-MS/MS, plasma was collected from animals during the first 24 h of dosing at prescribed timepoints. The timepoints included 1, 3, 8, and 24 h post initial dose for QD groups, and 1, 3, 8, 9, 11, and 24 h post initial dose for BID groups. Note that the 8- and 24-h plasma samples were prior to the afternoon dose for BID groups and prior to the second day dose for all groups, respectively. See section Quantification of Plasma Brensocatib Concentrations for details.
(§4) Blood was collected via the tail-vein technique and centrifuged to separate and collect the plasma. The resulting plasma samples were stored at −20°C or lower until LC-MS/MS analysis.
(§5) The plasma concentration of brensocatib was quantified by liquid chromatography, tandem mass spectrometry (LC-MS/MS), a Sciex API6500 mass spectrometer (SCIEX, Framingham, MA). Two brensocatib stock solutions were prepared, one for the preparation of the 8-point standard (STD) curve spiking solutions and the other for the preparation of the quantitative control spiking solutions (QCs) at three levels. The STD curve and QCs were prepared by 2% spiking from the spiking solutions into mouse or rat plasma. The samples were extracted using a protein precipitation method, where 10 µL of sample was mixed with 100 µL of internal standard working solution (100 ng/mL ^6C13-brensocatib in methanol), vortexed for 5 s, and centrifuged at 21,130 × g at 4°C for 15 min. The supernatant was mixed with an equal volume of water and 10 μL was injected into a Phenomenex Kinetex Biphenyl column (3.0 mm × 50 mm; 2.6 μm; 65°C; 0.8 mL/min) with an elution gradient consisting of mobile phase A (10 mM ammonium formate) and mobile phase B (methanol) over 2 min from 5% to 95% B. The mass spectrometer was equipped with an atmospheric-pressure chemical ionization source operating in positive mode.
(§6) Individual plasma concentrations were plotted and the area under the curve (AUC) was calculated using the trapezoid method. The elimination rate constant (k e ) was calculated as the negative natural log of the plasma concentration over time (Eq. 1) starting at the max concentration (C max) after the most recent dose to the last measurable plasma concentration between doses. The calculated k e was used to define the half-life (t 1/2 ) based on Eq. 2; where 0.693 is the natural log of 2 and assumes a first-order reaction. ke=−ln∆C/∆t (1) t1/2=0.693/ke (2)

[2] = Plasma PK of brensocatib, BID vs QD oral dosing, BALB/c mice; settings: for half-life / AUC(0-t): both sexes, BALB/c, mouse, po
Protocol: as §1, §2, §3, §4, §5, §6

[3] = Plasma PK of brensocatib, BID vs QD oral dosing, Wistar rats; settings: both sexes, rat; for half-life: Wistar, po; for AUC(0-t): first 24 h
Protocol: as §1, §2, §3, §4, §5, §6

[4] = 0.2 mg/kg/day, oral BID, 0.2 mg/kg/day, evening dose, read-out: t1/2, PM dose (converted)
[5] = 0.2 mg/kg/day, oral BID, 0.2 mg/kg/day, morning dose, read-out: t1/2, AM dose (converted)
[6] = 0.3 mg/kg/day, oral QD, 0.3 mg/kg/day, read-out: t1/2, AM dose (converted)
[7] = 2 mg/kg/day, oral BID, 2 mg/kg/day, evening dose, read-out: t1/2, PM dose (converted)
[8] = 2 mg/kg/day, oral BID, 2 mg/kg/day, morning dose, read-out: t1/2, AM dose (converted)
[9] = 3 mg/kg/day, oral QD, 3 mg/kg/day, read-out: t1/2, AM dose (converted)
[10] = 20 mg/kg/day, oral BID, 20 mg/kg/day, evening dose, read-out: t1/2, PM dose (converted)
[11] = 20 mg/kg/day, oral BID, 20 mg/kg/day, morning dose, read-out: t1/2, AM dose (converted)
[12] = 30 mg/kg/day, oral QD, 30 mg/kg/day, read-out: t1/2, AM dose (converted)

half-life ([1]; Sprague Dawley, Wistar, oral, rats (both strains), across BID and QD regimens, sparse PK, read-out: half-life (overall) (converted)): ~8 h
AUC(0-t) ([1]; Sprague-Dawley, SD rats, oral BID, 0.2 mg/kg/day, read-out: AUC0–24h): 124 ± 81 ng·h/mL
AUC(0-t) ([1]; Sprague-Dawley, SD rats, oral BID, 0.2 mg/kg/day, read-out: AUC(0–24)): 0.29 ± 0.19 µM·h
AUC(0-t) ([1]; Sprague-Dawley, SD rats, oral BID, 2 mg/kg/day, read-out: AUC0–24h): 4730 ± 421 ng·h/mL
AUC(0-t) ([1]; Sprague-Dawley, SD rats, oral BID, 2 mg/kg/day, read-out: AUC(0–24)): 11.2 ± 1 µM·h
AUC(0-t) ([1]; Sprague-Dawley, SD rats, oral BID, 20 mg/kg/day, read-out: AUC0–24h): 72600 ng·h/mL
AUC(0-t) ([1]; Sprague-Dawley, SD rats, oral BID, 20 mg/kg/day, read-out: AUC(0–24)): 173 ± 8.09 µM·h
AUC(0-t) ([1]; Sprague-Dawley, SD rats, oral QD, 0.3 mg/kg/day, read-out: AUC0–24h): 269 ± 128 ng·h/mL
AUC(0-t) ([1]; Sprague-Dawley, SD rats, oral QD, 0.3 mg/kg/day, read-out: AUC(0–24)): 0.64 ± 0.3 µM·h
AUC(0-t) ([1]; Sprague-Dawley, SD rats, oral QD, 3 mg/kg/day, read-out: AUC0–24h): 11100 ng·h/mL
AUC(0-t) ([1]; Sprague-Dawley, SD rats, oral QD, 3 mg/kg/day, read-out: AUC(0–24)): 26.39 ± 0.25 µM·h
AUC(0-t) ([1]; Sprague-Dawley, SD rats, oral QD, 30 mg/kg/day, read-out: AUC0–24h): 104000 ng·h/mL
AUC(0-t) ([1]; Sprague-Dawley, SD rats, oral QD, 30 mg/kg/day, read-out: AUC(0–24)): 248 ± 59.5 µM·h
half-life ([1]; Sprague-Dawley, po, 0.2 mg/kg/day, SD rats, oral BID, 0.2 mg/kg/day, evening dose, read-out: t1/2, PM dose (converted)): 0.55 ± 0.02 h
half-life ([1]; Sprague-Dawley, po, 0.3 mg/kg/day, SD rats, oral QD, 0.3 mg/kg/day, read-out: t1/2, AM dose (converted)): 5.36 ± 2.38 h
half-life ([1]; Sprague-Dawley, po, 2 mg/kg/day, SD rats, oral BID, 2 mg/kg/day, evening dose, read-out: t1/2, PM dose (converted)): 7.42 ± 1.16 h
half-life ([1]; Sprague-Dawley, po, 2 mg/kg/day, SD rats, oral BID, 2 mg/kg/day, morning dose, read-out: t1/2, AM dose (converted)): 13.5 ± 9.16 h
half-life ([1]; Sprague-Dawley, po, 3 mg/kg/day, SD rats, oral QD, 3 mg/kg/day, read-out: t1/2, AM dose (converted)): 4.46 ± 0.37 h
half-life ([1]; Sprague-Dawley, po, 20 mg/kg/day, SD rats, oral BID, 20 mg/kg/day, evening dose, read-out: t1/2, PM dose (converted)): 4.03 ± 0.44 h
half-life ([1]; Sprague-Dawley, po, 20 mg/kg/day, SD rats, oral BID, 20 mg/kg/day, morning dose, read-out: t1/2, AM dose (converted)): 14.1 ± 1.55 h
half-life ([1]; Sprague-Dawley, po, 30 mg/kg/day, SD rats, oral QD, 30 mg/kg/day, read-out: t1/2, AM dose (converted)): 3.88 ± 0.04 h
half-life [2, 4]: 0.67 ± 0.04 h
AUC(0-t) ([2]; 0.2 mg/kg/day, oral BID, 0.2 mg/kg/day, first 24 h, read-out: AUC0–24h): 124 ± 31 ng·h/mL
AUC(0-t) ([2]; 0.2 mg/kg/day, oral BID, 0.2 mg/kg/day, first 24 h, read-out: AUC(0–24)): 0.29 ± 0.07 µM·h
half-life [2, 5]: 1.58 ± 0.72 h
AUC(0-t) ([2]; 0.3 mg/kg/day, oral QD, 0.3 mg/kg/day, first 24 h, read-out: AUC0–24h): 188 ± 31 ng·h/mL
AUC(0-t) ([2]; 0.3 mg/kg/day, oral QD, 0.3 mg/kg/day, first 24 h, read-out: AUC(0–24)): 0.45 ± 0.07 µM·h
half-life [2, 6]: 0.97 ± 0.03 h
half-life [2, 7]: 1.19 ± 0.34 h
AUC(0-t) ([2]; 2 mg/kg/day, oral BID, 2 mg/kg/day, first 24 h, read-out: AUC0–24h): 1510 ± 395 ng·h/mL
AUC(0-t) ([2]; 2 mg/kg/day, oral BID, 2 mg/kg/day, first 24 h, read-out: AUC(0–24)): 3.59 ± 0.94 µM·h
half-life [2, 8]: 3.22 ± 0.35 h
AUC(0-t) ([2]; 3 mg/kg/day, oral QD, 3 mg/kg/day, first 24 h, read-out: AUC0–24h): 2960 ± 679 ng·h/mL
AUC(0-t) ([2]; 3 mg/kg/day, oral QD, 3 mg/kg/day, first 24 h, read-out: AUC(0–24)): 7.04 µM·h
half-life [2, 9]: 0.83 ± 0.03 h
half-life [2, 10]: 1.88 ± 0.06 h
AUC(0-t) ([2]; 20 mg/kg/day, oral BID, 20 mg/kg/day, first 24 h, read-out: AUC0–24h): 24100 ng·h/mL
AUC(0-t) ([2]; 20 mg/kg/day, oral BID, 20 mg/kg/day, first 24 h, read-out: AUC(0–24)): 57.3 ± 11.4 µM·h
half-life [2, 11]: 2.47 ± 0.31 h
AUC(0-t) ([2]; 30 mg/kg/day, oral QD, 30 mg/kg/day, first 24 h, read-out: AUC0–24h): 56300 ng·h/mL
AUC(0-t) ([2]; 30 mg/kg/day, oral QD, 30 mg/kg/day, first 24 h, read-out: AUC(0–24)): 134 ± 41.1 µM·h
half-life [2, 12]: 2.56 ± 0.14 h
AUC(0–24) ([2]; oral QD, 3 mg/kg/day, first 24 h): 7.05 ± 1.61 µM·h
half-life [3, 4]: 6.45 ± 0.55 h
half-life [3, 5]: 5.48 ± 1.76 h
half-life [3, 6]: 34.3 ± 20.3 h
half-life [3, 7]: 4.99 ± 0.33 h
half-life [3, 8]: 10.2 ± 1.47 h
half-life [3, 9]: 5.14 ± 0.5 h
half-life [3, 10]: 4.33 ± 0.16 h
half-life [3, 11]: 7.81 ± 1.38 h
half-life [3, 12]: 4.41 ± 0.18 h
AUC(0-t) ([3]; oral BID, 0.2 mg/kg/day, read-out: AUC0–24h): 377 ± 78 ng·h/mL
AUC(0-t) ([3]; oral BID, 0.2 mg/kg/day, read-out: AUC(0–24)): 0.9 ± 0.18 µM·h
AUC(0-t) ([3]; oral BID, 2 mg/kg/day, read-out: AUC0–24h): 9820 ± 1820 ng·h/mL
AUC(0-t) ([3]; oral BID, 2 mg/kg/day, read-out: AUC(0–24)): 23.4 ± 4.32 µM·h
AUC(0-t) ([3]; oral BID, 20 mg/kg/day, read-out: AUC0–24h): 173000 ng·h/mL
AUC(0-t) ([3]; oral BID, 20 mg/kg/day, read-out: AUC(0–24)): 412 ± 89.6 µM·h
AUC(0-t) ([3]; oral QD, 0.3 mg/kg/day, read-out: AUC0–24h): 1040 ± 291 ng·h/mL
AUC(0-t) ([3]; oral QD, 0.3 mg/kg/day, read-out: AUC(0–24)): 2.46 ± 0.69 µM·h
AUC(0-t) ([3]; oral QD, 3 mg/kg/day, read-out: AUC0–24h): 11700 ng·h/mL
AUC(0-t) ([3]; oral QD, 3 mg/kg/day, read-out: AUC(0–24)): 27.9 ± 5.53 µM·h
AUC(0-t) ([3]; oral QD, 30 mg/kg/day, read-out: AUC0–24h): 266000 ng·h/mL
AUC(0-t) ([3]; oral QD, 30 mg/kg/day, read-out: AUC(0–24)): 634 ± 52.4 µM·h
SMILES: Cn1c(=O)oc2ccc(-c3ccc(C[C@@H](C#N)NC(=O)[C@@H]4CNCCCO4)cc3)cc21 [brensocatib]
